Measured values published in patent publication US8207314B2, “Tumor antigens for prevention and/or treatment of cancer” (Sanofi Pasteur Limited, priority 2003, dated 2012).

What was measured:
[1] = tested on: autologous T-cell-enriched PBMC preparations; test: IFN-γ ELISPOT of human T cells stimulated with AAC2-2 peptide pools; format: cell-based; conditions: human T cells from HLA-A-0201 donors, after third and fourth round of stimulation with AAC2-2 peptide pools
Method: Using the AAC2-2 amino acid sequence, a library of 9-mer peptides predicted to bind to HLA-A-0201 was constructed (Table III; “N” indicates the sequence is not found within the mouse homolog, while “Y” indicates the sequence is found within the mouse homolog). Twenty-three of the peptides were dissolved in DMSO at 10 mg/ml (Table IV) and used in human PBMC cultures to test for their ability to elicit CD8 and CD4αβ T-cell responses in vitro.
Using GM-CSF and IL-4, dendritic cells (DC) were generated from peripheral blood monocytes of blood donors expressing HLA-A-0201.
These DC were used to stimulate autologous T-cell-enriched PBMC preparations. The T cells were re-stimulated with autologous PBMC and then re-stimulated with CD40-ligand-activated autologous B cells. […] Peptide group 6 includes the following peptides: […] (aa 36-44), […] (aa 41-49), and […] (aa 95-103).

[2] = tested on: peptide-loaded TAP-deficient T2 cells; test: CTL activity of AAC2-2 peptide pool-specific T-cell line; format: cell-based, human; conditions: HLA-A-0201-restricted, T-cell line stimulated by peptide group 6
Method: Thus, it was determined that AAC2-2 peptides are immunogenic in the human immune system.

Sequence: ILTDVTLLV [EC5]
- IFN-γ production (ELISPOT) [1]: dominant activity
- CTL activity killing peptide-loaded T2 target cells [2]: dominant activity
- CTL activity killing peptide-loaded T2 target cells ([2]; listed as ILTDVTLLV): dominant peptide
